This is an account of results in article PMC12663261 (Nature Communications, 2025).

Test [1] has as its target T1, hcis-PT (DHDDS / NgBR complex) (Homo sapiens, UniProt Q86SQ9+Q96E22).
T1 sequence (Q86SQ9 1-333): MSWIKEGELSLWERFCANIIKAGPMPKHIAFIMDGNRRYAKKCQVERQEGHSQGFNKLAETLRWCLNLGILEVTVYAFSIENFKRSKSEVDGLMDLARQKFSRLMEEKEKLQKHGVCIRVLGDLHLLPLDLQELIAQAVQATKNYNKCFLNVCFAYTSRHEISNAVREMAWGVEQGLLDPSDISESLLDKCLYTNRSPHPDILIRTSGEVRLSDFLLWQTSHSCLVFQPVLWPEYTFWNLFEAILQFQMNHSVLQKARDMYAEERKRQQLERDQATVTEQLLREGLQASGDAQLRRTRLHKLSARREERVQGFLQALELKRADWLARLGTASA
T1 sequence (Q96E22 73-293): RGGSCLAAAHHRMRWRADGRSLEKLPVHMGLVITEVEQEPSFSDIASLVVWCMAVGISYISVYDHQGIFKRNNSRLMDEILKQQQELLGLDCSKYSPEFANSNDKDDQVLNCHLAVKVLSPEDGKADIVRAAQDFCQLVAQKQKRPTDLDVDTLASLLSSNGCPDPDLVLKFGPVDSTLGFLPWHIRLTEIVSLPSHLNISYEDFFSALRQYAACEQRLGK
Put plainly: HDX-MS, ligand-bound versus apo. Format: binding. Conditions: 6-molar excess ligand, 5 mM MgCl2, pD 7.5, 4 °C; active site.

The target of test [2] is T1, hcis-PT (DHDDS / NgBR complex). Put plainly: fluorescence increase upon chain elongation. Format: biochemical. Conditions: 5 uM with 100 uM IPP, 0.2 uM enzyme, 0.5 mM MgCl2, pH 7.5.

In the case of `CC(C)=CCC/C(C)=C/CC/C(C)=C/COP(=O)(O)OP(=O)(O)O` [FPP], the “HDX-MS, ligand-bound versus apo” value in test [1] was “binding of either FPP or GGPP resulted in decreased HDX throughout the active site”.

For `CC(C)=CCC/C(C)=C/CC/C(C)=C/CC/C(C)=C/COP(=O)(O)OP(=O)(O)O` [GGPP], the “HDX-MS, ligand-bound versus apo” value in test [1] is “binding of either FPP or GGPP resulted in decreased HDX throughout the active site”.

In the case of `CNc1ccccc1C(=O)OC/C(C)=C/CC/C(C)=C/COP(=O)(O)OP(=O)(O)O` [MANT-O-GPP, (2E,6E)-8-O-(N-methyl-2-aminobenzoyl)-3,7-dimethyl-2,6-octandien-1-pyrophosphate], the “fluorescence increase upon chain elongation (Ex 352 nm, Em 425 nm)” value in test [2] is “MANT-O-GPP exhibits an increase in fluorescence upon chain elongation by hcis-PT”.
